Test results taken from ChEMBL document CHEMBL1201862, “PubChem BioAssay data set” (2004).
Calls of active or inactive are those of the source.

Key:
[1] = target: T1, Carboxy-terminal domain RNA polymerase II polypeptide A small phosphatase 1 (Homo sapiens, UniProt Q9GZU7); test: CTDSP1 inhibitors, concentration-response, biochemical, absorbance readout, ultra-high-throughput screen actives (AID 540297); format: functional
T1 sequence (Q9GZU7 whole entry): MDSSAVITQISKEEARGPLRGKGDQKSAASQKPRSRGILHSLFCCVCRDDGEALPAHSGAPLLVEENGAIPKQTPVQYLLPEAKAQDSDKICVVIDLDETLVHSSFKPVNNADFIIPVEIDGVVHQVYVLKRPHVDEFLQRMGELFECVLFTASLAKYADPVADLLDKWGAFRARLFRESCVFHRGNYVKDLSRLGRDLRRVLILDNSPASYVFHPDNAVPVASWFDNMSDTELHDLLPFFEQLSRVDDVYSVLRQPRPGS

[2] = microbe, parasite or virus in culture; format: functional; settings: Mycobacterium tuberculosis
[3] = Luminescence Cell-Based Dose Retest to Confirm Inhibitors of Cancer Stem Cells. [Related pubchem assays (depositor defined):AID2717, AID2721]; format: functional; settings: Homo sapiens
[4] = Vero E6 cell cytotoxicity, dose response, cytotoxicity control for non-replicating M. tuberculosis project, secondary assay (AID 492998); format: functional, VeroE6; settings: Vero C1008
[5] = NIH-3T3 fibroblast cytotoxicity, dose response, cytotoxicity control, cell-based, fluorescence, Alamar Blue, secondary assay (AID 2327); format: functional;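 also: NIH-3T3 mouse fibroblasts cultured with fluconazole at 8 µg/mL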
[6] = target: ATP-dependent molecular chaperone HSP82 (Candida albicans (strain WO-1) (Yeast), UniProt C4YTQ8); test: steroid-induced GRE reporter decrease in yeast – S. cerevisiae, luminescence, Hsp90 inhibitor project, dose response (AID 2400); format: functional, cell-based;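 also: beta-galactosidase luminescence from glucocorticoid response element reporter as proxy for Hsp90 function; inhibitor potency where signal loss means Hsp90 inhibition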
Chain of ATP-dependent molecular chaperone HSP82 (C4YTQ8 whole entry): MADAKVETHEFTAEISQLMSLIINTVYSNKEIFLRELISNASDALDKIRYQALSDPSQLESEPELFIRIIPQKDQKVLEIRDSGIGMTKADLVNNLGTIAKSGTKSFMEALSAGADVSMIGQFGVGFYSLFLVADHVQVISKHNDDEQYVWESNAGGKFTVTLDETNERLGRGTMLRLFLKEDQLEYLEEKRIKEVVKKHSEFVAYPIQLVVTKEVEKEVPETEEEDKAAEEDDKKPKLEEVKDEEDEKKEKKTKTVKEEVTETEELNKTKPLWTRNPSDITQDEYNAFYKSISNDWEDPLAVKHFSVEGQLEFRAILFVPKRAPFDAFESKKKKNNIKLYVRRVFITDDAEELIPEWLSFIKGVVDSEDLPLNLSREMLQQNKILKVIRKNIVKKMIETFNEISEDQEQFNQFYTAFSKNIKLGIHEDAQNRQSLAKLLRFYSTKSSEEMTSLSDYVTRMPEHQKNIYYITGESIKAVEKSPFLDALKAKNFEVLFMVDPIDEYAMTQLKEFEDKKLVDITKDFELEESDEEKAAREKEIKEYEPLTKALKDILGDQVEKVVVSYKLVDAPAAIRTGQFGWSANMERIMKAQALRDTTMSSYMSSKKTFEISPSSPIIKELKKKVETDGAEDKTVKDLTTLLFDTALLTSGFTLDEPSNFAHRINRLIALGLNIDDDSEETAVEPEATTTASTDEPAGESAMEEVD

[7] = cells; format: functional
[8] = HepG2 cell cytotoxicity, dose response, cytotoxicity control for non-replicating M. tuberculosis project (AID 489018); format: functional; settings: Mycobacterium tuberculosis
[9] = THP-1 cell cytotoxicity, dose response, cytotoxicity control for non-replicating M. tuberculosis project (AID 489025); format: functional
[10] = target: T2, Serine/threonine-protein phosphatase (Candida dubliniensis (strain CD36 / CBS 7987 / NCPF 3949 / NRRLY-17841) (Yeast), UniProt B9W6M3); test: blockers of CaCl2-induced CDRE-lacZ signaling – S. cerevisiae, luminescence, secondary, dose response (AID 2388); format: functional, cell-based;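 also: yeast reporter cells carrying a calcineurin-responsive lacZ construct stimulated with calcium chloride; luminescent beta-galactosidase reporter signal in whole cells rather than isolated phosphatase activity; potency for inhibition where a drop in reporter signal means calcineurin blockade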
T2 sequence (B9W6M3 whole entry): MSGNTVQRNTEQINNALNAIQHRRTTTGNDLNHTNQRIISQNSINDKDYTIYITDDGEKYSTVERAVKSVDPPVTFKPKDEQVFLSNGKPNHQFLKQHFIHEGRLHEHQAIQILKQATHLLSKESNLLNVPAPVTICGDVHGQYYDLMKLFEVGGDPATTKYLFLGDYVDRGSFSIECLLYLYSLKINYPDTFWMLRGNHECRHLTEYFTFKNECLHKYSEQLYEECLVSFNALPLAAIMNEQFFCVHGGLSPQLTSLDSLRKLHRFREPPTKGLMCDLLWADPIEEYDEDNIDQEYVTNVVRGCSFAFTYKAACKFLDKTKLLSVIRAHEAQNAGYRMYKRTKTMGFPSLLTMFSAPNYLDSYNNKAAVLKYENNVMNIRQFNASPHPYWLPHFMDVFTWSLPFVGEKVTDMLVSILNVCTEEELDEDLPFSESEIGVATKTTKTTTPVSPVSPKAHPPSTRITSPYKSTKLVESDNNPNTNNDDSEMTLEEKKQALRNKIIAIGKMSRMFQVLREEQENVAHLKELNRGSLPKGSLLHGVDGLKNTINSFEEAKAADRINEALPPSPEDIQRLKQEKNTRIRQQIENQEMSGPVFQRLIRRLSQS

[11] = fluconazole-exposed Candida albicans growth modulators – fluorescence, retest, confirmation (AID 2467); format: functional, cell-based
[12] = target: T3, High affinity choline transporter 1 (Homo sapiens, UniProt Q9GZV3); test: human choline transporter blockers, potency – cell-based, 5-point CRC, membrane potential dye, dose response (AID 504840); format: functional
T3 sequence (Q9GZV3 whole entry): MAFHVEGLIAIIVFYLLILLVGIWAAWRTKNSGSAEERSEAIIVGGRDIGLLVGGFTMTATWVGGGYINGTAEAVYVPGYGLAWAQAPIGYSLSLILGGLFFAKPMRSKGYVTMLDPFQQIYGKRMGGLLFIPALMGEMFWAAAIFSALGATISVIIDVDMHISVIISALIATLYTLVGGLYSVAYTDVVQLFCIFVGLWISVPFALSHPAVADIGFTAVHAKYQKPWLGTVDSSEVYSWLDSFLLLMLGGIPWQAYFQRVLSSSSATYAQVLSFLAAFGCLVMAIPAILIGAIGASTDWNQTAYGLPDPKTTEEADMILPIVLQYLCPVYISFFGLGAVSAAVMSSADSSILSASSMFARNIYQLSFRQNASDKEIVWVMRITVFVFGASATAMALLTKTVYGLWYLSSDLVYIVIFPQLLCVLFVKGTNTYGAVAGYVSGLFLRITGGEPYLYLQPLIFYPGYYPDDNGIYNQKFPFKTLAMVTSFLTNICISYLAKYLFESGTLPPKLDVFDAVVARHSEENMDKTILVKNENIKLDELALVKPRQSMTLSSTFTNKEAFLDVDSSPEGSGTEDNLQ

[13] = target: Genome polyprotein (dengue virus type 2, UniProt P29990); test: flavivirus cap methylation enzyme inhibition – biochemical, confirmation dose response, primary screen (AID 588689); format: functional
Chain of Genome polyprotein (P29990 2492-3391 limits assumed): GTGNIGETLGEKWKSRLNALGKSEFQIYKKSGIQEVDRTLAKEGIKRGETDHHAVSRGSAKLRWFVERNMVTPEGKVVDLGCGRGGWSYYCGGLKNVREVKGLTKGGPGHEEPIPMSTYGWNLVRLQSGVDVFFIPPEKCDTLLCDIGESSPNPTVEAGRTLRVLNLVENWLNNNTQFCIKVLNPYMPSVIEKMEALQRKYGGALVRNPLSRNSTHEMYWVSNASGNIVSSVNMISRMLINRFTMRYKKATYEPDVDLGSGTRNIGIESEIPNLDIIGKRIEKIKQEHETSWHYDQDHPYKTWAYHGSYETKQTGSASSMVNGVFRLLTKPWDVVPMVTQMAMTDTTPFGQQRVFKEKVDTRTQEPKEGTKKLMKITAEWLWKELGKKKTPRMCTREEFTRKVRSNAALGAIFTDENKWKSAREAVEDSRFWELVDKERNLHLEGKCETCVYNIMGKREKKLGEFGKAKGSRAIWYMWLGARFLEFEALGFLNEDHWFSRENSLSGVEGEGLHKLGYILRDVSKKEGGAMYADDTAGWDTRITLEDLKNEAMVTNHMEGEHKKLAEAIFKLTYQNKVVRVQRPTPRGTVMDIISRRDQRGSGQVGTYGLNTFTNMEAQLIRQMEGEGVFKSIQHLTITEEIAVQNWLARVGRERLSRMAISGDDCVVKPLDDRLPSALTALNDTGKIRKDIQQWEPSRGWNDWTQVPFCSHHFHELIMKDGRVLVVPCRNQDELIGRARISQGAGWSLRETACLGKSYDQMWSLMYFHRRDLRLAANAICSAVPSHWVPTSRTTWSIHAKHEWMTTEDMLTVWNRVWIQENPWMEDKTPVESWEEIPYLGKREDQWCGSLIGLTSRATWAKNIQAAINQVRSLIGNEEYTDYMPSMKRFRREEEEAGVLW

[14] = target: T4, RNA-binding protein pos-1 (Caenorhabditis elegans, UniProt G5EF15); test: disruptors of C. elegans POS-1 RNA interaction – biochemical, fluorescence polarization, dose response (AID 1964);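 also: purified POS-1 fused to maltose binding protein made in E. coli; potency of compounds blocking POS-1 binding to fluorescent RNA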
T4 sequence (G5EF15 whole entry): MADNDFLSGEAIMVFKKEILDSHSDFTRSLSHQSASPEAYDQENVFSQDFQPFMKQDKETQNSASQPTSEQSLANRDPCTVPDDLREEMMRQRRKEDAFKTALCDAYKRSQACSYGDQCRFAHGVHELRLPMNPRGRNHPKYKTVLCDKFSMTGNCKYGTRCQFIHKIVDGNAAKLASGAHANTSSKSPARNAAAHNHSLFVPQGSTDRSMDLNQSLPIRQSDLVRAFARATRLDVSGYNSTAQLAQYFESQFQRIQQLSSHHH

[15] = target: T5, Zinc finger protein mex-5 (Caenorhabditis elegans, UniProt Q9XUB2); test: potency of MEX-5 RNA-binding blockers – biochemical, C. elegans, fluorescence polarization, dose response (AID 1960)
T5 sequence (Q9XUB2 whole entry): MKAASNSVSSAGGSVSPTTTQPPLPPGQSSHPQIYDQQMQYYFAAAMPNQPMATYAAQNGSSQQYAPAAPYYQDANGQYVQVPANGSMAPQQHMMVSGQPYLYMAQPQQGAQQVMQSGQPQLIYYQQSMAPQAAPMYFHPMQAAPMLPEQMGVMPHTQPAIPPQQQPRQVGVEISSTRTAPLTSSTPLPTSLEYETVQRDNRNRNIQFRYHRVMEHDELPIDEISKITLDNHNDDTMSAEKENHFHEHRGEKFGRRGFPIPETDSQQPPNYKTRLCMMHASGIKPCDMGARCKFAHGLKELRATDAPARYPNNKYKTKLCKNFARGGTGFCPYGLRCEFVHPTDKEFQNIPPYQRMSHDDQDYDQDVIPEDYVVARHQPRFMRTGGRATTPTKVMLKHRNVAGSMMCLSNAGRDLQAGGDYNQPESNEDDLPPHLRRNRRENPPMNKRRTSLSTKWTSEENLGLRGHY

[16] = target: T6, Endoribonuclease toxin MazF (Escherichia coli K-12, UniProt P0AE70); test: substrate-only fluorescence increase artefacts – biochemical, single-stranded RNase substrate, counter-screen for MazEF activator project, dose response (AID 588502); format: functional
T6 sequence (P0AE70 whole entry): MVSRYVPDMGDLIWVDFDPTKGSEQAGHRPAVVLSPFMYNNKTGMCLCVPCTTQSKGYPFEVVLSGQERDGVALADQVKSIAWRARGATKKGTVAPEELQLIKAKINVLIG

[17] = target: T6, Endoribonuclease toxin MazF; test: activation of MazEF endoribonuclease cleavage – biochemical, fluorescence, single-stranded RNA substrate, uHTS hits, dose response (AID 588481); format: functional
[18] = target: T7, Leucine aminopeptidase (Plasmodium falciparum 3D7, UniProt Q8IL11); test: P. falciparum M17LAP inhibitors, primary screen, biochemical, fluorogenic H-Leu-NHMec substrate, 1536-well (AID 1619); format: functional
T7 sequence (Q8IL11 whole entry): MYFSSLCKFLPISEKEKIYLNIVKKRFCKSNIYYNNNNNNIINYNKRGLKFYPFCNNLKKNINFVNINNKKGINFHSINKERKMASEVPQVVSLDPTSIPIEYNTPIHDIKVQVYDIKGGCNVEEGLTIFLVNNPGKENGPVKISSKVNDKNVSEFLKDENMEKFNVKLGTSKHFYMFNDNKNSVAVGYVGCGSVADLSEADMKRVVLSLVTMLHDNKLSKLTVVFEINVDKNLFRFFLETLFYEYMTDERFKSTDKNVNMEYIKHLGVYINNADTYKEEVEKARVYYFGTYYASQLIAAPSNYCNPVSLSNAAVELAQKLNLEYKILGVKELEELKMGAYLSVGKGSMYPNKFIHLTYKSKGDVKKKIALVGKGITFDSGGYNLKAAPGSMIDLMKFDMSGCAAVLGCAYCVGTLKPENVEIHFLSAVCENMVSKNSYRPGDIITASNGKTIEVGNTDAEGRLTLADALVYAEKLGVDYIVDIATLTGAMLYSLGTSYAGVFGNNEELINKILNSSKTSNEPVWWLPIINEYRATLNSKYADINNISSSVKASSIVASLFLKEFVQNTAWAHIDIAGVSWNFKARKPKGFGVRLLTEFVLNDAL

[19] = target: T8, Estrogen receptor (Homo sapiens, UniProt P03372);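 also: potency for inhibiting coactivator peptide recruitment to the receptor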
T8 sequence (P03372 whole entry): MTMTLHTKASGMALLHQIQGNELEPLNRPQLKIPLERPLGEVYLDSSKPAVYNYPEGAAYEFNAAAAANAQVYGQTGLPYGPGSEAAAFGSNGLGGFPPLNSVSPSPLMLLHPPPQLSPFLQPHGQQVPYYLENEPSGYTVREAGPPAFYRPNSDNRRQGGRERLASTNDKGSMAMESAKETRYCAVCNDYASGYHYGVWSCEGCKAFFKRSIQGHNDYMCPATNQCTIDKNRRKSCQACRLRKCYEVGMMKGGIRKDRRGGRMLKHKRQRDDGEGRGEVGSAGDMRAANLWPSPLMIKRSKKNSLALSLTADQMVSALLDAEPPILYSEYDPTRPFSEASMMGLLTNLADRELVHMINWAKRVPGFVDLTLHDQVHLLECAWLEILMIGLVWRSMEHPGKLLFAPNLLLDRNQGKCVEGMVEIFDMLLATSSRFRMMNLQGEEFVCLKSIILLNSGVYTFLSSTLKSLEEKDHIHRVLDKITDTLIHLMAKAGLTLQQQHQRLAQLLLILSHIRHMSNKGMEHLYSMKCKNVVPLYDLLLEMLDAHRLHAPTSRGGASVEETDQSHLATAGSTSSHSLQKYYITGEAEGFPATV

[20] = intracellular Trypanosoma cruzi inhibitors in host cells – cell-based, plate reader, cherry-pick samples, set 3, dose response (AID 651818); format: functional;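 also: compounds incubated with infected cells for about four days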

O=C(NNC(=O)c1cc2cc3ccccc3nc2s1)c1ccc(F)cc1
IC50 [1]: 4.28 µM (active)

CC1(O)CC(c2ccc(Cl)cc2)=NN1C(=O)c1ccc([N+](=O)[O-])cc1 (stereo not drawn)
CC50 [2]: 24.7 µM (active)
AC50 [3]: 3.86 µM (active)
CC50 [4]: 19.5 µM (active)
EC50 [5]: > 150 µM (inconclusive)
EC50 [6]: 12.5 µM (active)
IC50 [7]: 14.2 µM (active)
CC50 [8]: > 20 µM (active)
CC50 [9]: 15.5 µM (active)
EC50 [10]: > 180 µM (inactive)
EC50 [11]: 404 nM (active)

O=C(NCc1ccccc1)c1sc(=S)n2c1[nH]c(=O)c1ccccc12
IC50 [12]: 22 µM (active)
EC50 [5]: > 150 µM (inactive)
EC50 [6]: 6.61 µM (active)
EC50 [10]: > 180 µM (inactive)
EC50 [11]: 706 nM (active)
IC50 [13]: 77 µM (active)

O=C(COc1cccc2ccccc12)Nc1cc(Cl)ccc1C(=O)O
IC50 [13]: 40.5 µM (active)

O=C(O)Cc1ccc(NC(=O)c2ccc3c(c2)C(=O)N(Cc2ccco2)C3=O)cc1
IC50 [1]: 3.79 µM (active)

CC(=O)c1sc2nc(-c3cccs3)cc(C(F)(F)F)c2c1N
EC50 [14]: 45.9 µM (active)
EC50 [15]: > 300 µM (not active)
EC50 [16]: 22.3 µM (inactive)
EC50 [17]: > 99 µM (inactive)

CCOC(=O)c1c(NC(=O)C2C3C=CC(C3)C2(C)C(=O)O)sc2c1CCCC2 (stereo not drawn)
IC50 [18]: 8.1 µM (active)
IC50 [1]: 16.1 µM (active)

COc1ccc(OCCC(=O)OCC(=O)NCc2ccco2)cc1
IC50 [19]: 33.3 µM (not active)
IC50 [1]: 9.12 µM (active)

CCOC(=O)[C@H]1[C@H]2COc3ccccc3[C@@H]2N2C(=O)CN(Cc3ccc(C)cc3)C(=O)[C@@]12C
EC50 [16]: > 99 µM (inactive)
EC50 [17]: > 99 µM (inactive)

CCCCN1CC(=O)N2[C@@H]3c4cc(Br)ccc4OC[C@@H]3[C@H](C(=O)OCC)[C@]2(C)C1=O
EC50 [16]: 39.6 µM (inactive)
EC50 [17]: > 99 µM (inactive)

C[C@H](CO)N1C[C@H](C)[C@@H](CN(C)Cc2ccc(C(F)(F)F)cc2)Oc2ccc(NS(=O)(=O)c3ccc(F)cc3)cc2C1=O
AC50 [20]: 3.48 µM (active)

C[C@@H]1CCCCO[C@@H](CN(C)Cc2ccc(C(=O)Nc3ccccc3N)cc2)[C@@H](C)CN([C@H](C)CO)C(=O)c2cc(NS(C)(=O)=O)ccc2O1
AC50 [20]: 4.5 µM (active)

C[C@@H]1CN([C@H](C)CO)C(=O)c2cccc(NC(=O)Nc3ccc(C(F)(F)F)cc3)c2O[C@@H]1CN(C)Cc1ccc(Oc2ccccc2)cc1
AC50 [20]: 7.23 µM (active)

C[C@@H]1CN([C@H](C)CO)C(=O)c2cc(NC(=O)Nc3cccc4ccccc34)ccc2O[C@@H]1CN(C)Cc1ccc(C(F)(F)F)cc1
AC50 [20]: 2.44 µM (active)

COc1ccc(NC(=O)Nc2ccc3c(c2)CC(=O)N([C@H](C)CO)C[C@@H](C)[C@@H](CN(C)Cc2ccc(C(=O)Nc4ccccc4N)cc2)O3)cc1
AC50 [20]: 2.16 µM (active)

O=[N+]([O-])c1cccc(-c2csc(N/N=C/c3cccc(O)c3)n2)c1
AC50 [3]: 2.8 µM (active)
IC50 [1]: 10.8 µM (active)
